Source: patent US20240132484A1, “BROAD SPECTRUM ANTIVIRAL COMPOUNDS TARGETING THE SKI COMPLEX” (priority 2020, published 2024)
“And” between values parts separate entries of the source, which are not always exact repeats. Equal values may be shown once. Read-outs that look alike come from different tables or passages of the source.

Legend:
cells (nuclei count) = conditions: for Toxicity Data, Average, Mean percentage relative to DMSO control: Average of Exp 1 (SMW491) and Exp 2 (SMW492); for Toxicity Data, Percentage Relative to Appropriate DMSO Control: single well
SARS2 = assay type: cell-based, SARS-CoV-2; conditions: for Infection Data, Average, Mean percentage infection relative to DMSO control: Average of Exp 1 (SMW491) and Exp 2 (SMW492); for Infection Data, Percentage Infection Relative to Appropriate DMSO Control: single well, avg background subtraction

SMILES: COc1ccc(CNCCc2ccccc2F)c(OCC(O)CN2CCN(C)CC2)c1 (stereo not drawn) [SILCS46]
- Relative cell count to DMSO controls, Average 1 μM (cells (nuclei count); 1 μM, toxicity data, 100=DMSO control): 103.33
- Relative cell count to DMSO controls, Average 5 μM (cells (nuclei count); 5 μM, toxicity data, 100=DMSO control): 131.17
- Relative cell count to DMSO controls, Average 10 μM (cells (nuclei count); 10 μM, toxicity data, 100=DMSO control): 126.44
- Relative cell count to DMSO controls, Average 25 μM (cells (nuclei count); 25 μM, toxicity data, 100=DMSO control): 117.77
- Relative cell count to DMSO controls, Average 50 μM (cells (nuclei count); 50 μM, toxicity data, 100=DMSO control): 107.72
- Toxicity Data, Average, Mean percentage relative to DMSO control (cells (nuclei count); n=4, 1 uM): 103.33%
- Toxicity Data, Average, Mean percentage relative to DMSO control (cells (nuclei count); n=4, 5 uM): 131.17%
- Toxicity Data, Average, Mean percentage relative to DMSO control (cells (nuclei count); n=4, 10 uM): 126.44%
- Toxicity Data, Average, Mean percentage relative to DMSO control (cells (nuclei count); n=4, 25 uM): 117.77%
- Toxicity Data, Average, Mean percentage relative to DMSO control (cells (nuclei count); n=4, 50 uM): 107.72%
- Toxicity Data, Percentage Relative to Appropriate DMSO Control (cells (nuclei count); Exp 1 (SMW491), 1 uM): 87% and 86%
- Toxicity Data, Percentage Relative to Appropriate DMSO Control (cells (nuclei count); Exp 1 (SMW491), 5 uM): 124% and 137%
- Toxicity Data, Percentage Relative to Appropriate DMSO Control (cells (nuclei count); Exp 1 (SMW491), 10 uM): 126% and 116%
- Toxicity Data, Percentage Relative to Appropriate DMSO Control (cells (nuclei count); Exp 1 (SMW491), 25 uM): 118% and 101%
- Toxicity Data, Percentage Relative to Appropriate DMSO Control (cells (nuclei count); Exp 1 (SMW491), 50 uM): 84% and 108%
- Toxicity Data, Percentage Relative to Appropriate DMSO Control (cells (nuclei count); Exp 2 (SMW492), 1 uM): 100% and 140%
- Toxicity Data, Percentage Relative to Appropriate DMSO Control (cells (nuclei count); Exp 2 (SMW492), 5 uM): 120% and 143%
- Toxicity Data, Percentage Relative to Appropriate DMSO Control (cells (nuclei count); Exp 2 (SMW492), 10 uM): 134% and 130%
- Toxicity Data, Percentage Relative to Appropriate DMSO Control (cells (nuclei count); Exp 2 (SMW492), 25 uM): 117% and 135%
- Toxicity Data, Percentage Relative to Appropriate DMSO Control (cells (nuclei count); Exp 2 (SMW492), 50 uM): 118% and 121%
- Relative cell count to DMSO controls, Average (for correlation analysis) (cells (nuclei count); average value over the 5 tested concentrations (1 to 50 uM)): 117.29
- SARS2 antiviral activity (SARS2): lower activity
- Infection Data, Average, Mean percentage infection relative to DMSO control (SARS2; n=4, 1 uM): 72.12%
- Infection Data, Average, Mean percentage infection relative to DMSO control (SARS2; n=4, 5 uM): 0.77%
- Infection Data, Average, Mean percentage infection relative to DMSO control (SARS2; n=4, 10 uM): 21.64%
- Infection Data, Average, Mean percentage infection relative to DMSO control (SARS2; n=4, 25 uM): 0.03%
- Infection Data, Average, Mean percentage infection relative to DMSO control (SARS2; n=4, 50 uM): 0.84%
- Infection Data, Percentage Infection Relative to Appropriate DMSO Control (SARS2; Exp 1 (SMW491), 1 uM): 73.61% and 132.86%
- Infection Data, Percentage Infection Relative to Appropriate DMSO Control (SARS2; Exp 1 (SMW491), 5 uM): −0.70% and 0.86%
- Infection Data, Percentage Infection Relative to Appropriate DMSO Control (SARS2; Exp 1 (SMW491), 10 uM): −2.65% and −0.77%
- Infection Data, Percentage Infection Relative to Appropriate DMSO Control (SARS2; Exp 1 (SMW491), 25 uM): −3.35% and 0.11%
- Infection Data, Percentage Infection Relative to Appropriate DMSO Control (SARS2; Exp 1 (SMW491), 50 uM): 2.55% and −4.15%
- Infection Data, Percentage Infection Relative to Appropriate DMSO Control (SARS2; Exp 2 (SMW492), 1 uM): 49.01% and 32.97%
- Infection Data, Percentage Infection Relative to Appropriate DMSO Control (SARS2; Exp 2 (SMW492), 5 uM): 0.99% and 1.92%
- Infection Data, Percentage Infection Relative to Appropriate DMSO Control (SARS2; Exp 2 (SMW492), 10 uM): 47.59% and 42.39%
- Infection Data, Percentage Infection Relative to Appropriate DMSO Control (SARS2; Exp 2 (SMW492), 25 uM): 0.98% and 2.39%
- Infection Data, Percentage Infection Relative to Appropriate DMSO Control (SARS2; Exp 2 (SMW492), 50 uM): 3.90% and 1.08%
- Percentage Inhibition Average 1 μM (SARS2; SARS2, 1 μM): 27.88%
- Screening data (Relative infection to DMSO controls) Average 1 μM (SARS2; SARS2, 1 μM, 100=DMSO control): 72.12
- Percentage Inhibition Average 5 μM (SARS2; SARS2, 5 μM): 99.23%
- Screening data (Relative infection to DMSO controls) Average 5 μM (SARS2; SARS2, 5 μM, 100=DMSO control): 0.77
- Percentage Inhibition Average 10 μM (SARS2; SARS2, 10 μM): 78.36%
- Screening data (Relative infection to DMSO controls) Average 10 μM (SARS2; SARS2, 10 μM, 100=DMSO control): 21.64
- Percentage Inhibition Average 25 μM (SARS2; SARS2, 25 μM): 99.97%
- Screening data (Relative infection to DMSO controls) Average 25 μM (SARS2; SARS2, 25 μM, 100=DMSO control): 0.03
- Percentage Inhibition Average 50 μM (SARS2; SARS2, 50 μM): 99.16%
- Screening data (Relative infection to DMSO controls) Average 50 μM (SARS2; SARS2, 50 μM, 100=DMSO control): 0.84
- Average (relative infection to DMSO over the 5 tested concentrations) (SARS2; SARS2, average over 1 to 50 uM, 100=DMSO control): 19.08
